From patent US9271448B2, “Method for cultivating sugar cane” (BASF SE, priority 2010, dated 2016) come the findings set out here.

The subject of this experiment is sugar cane seedlings. As to the kind of experiment: Growth of sugar cane seedlings treated in the greenhouse, then transplanted to the field. The format is in vivo. From the text: On an area of 0.1 hectares where sugar cane plants were growing with a distance between the rows of approximately 1.5 m, the top part of the 8 months old sugar cane plants was removed by chopping off with a machete in a height of approximately 2-2.5 m. The removed top part was discarded. After 30 days, on the below, remaining stalks, shoots (“1st generation”) had developed from the buds. The top parts (approximately 30 cm) of these shoots were removed by cutting. New shoots (“2nd generation”) developed from the cut shoots of the 1st generation. 30 days after cutting the top part of the 1st generation shoots, the 2nd generation shoots were removed by cutting them off closely to the nodes. On average, every node had produced three 2nd generation shoots. The removed 2nd generation shoots were each placed in pots filled with humid coconut fibers. The pots were placed in a greenhouse, and seedlings were grown from the planted shoots at 25-35° C. and 70-80% humidity. While in the greenhouse, the shoots/seedlings were watered sufficiently. One part of the seedlings was treated once with pyraclostrobin (in form of the commercial product Comet®; EC; 250 g/l) by immersing the entire tray containing the planted shoots for 10 min into a solution containing 4 ml of Comet® concentrate per l; i.e. 1 g pyraclostrobin per l. Another part of the seedlings remained untreated (control). 30 to 45 days after having been placed in the greenhouse, the surviving seedlings were transferred to an acclimatization area and kept for 15 days. Then they were counted and transplanted to a field. In sum 96,000 seedlings had been obtained. This number was sufficient for planting an area of 6.4 hectares with the same distance between the rows and the plants in the rows as in the originating field. […] 20 days after transplanting, the plant height of the treated and untreated plants was determined.

Where the note is “1 g a.i./l, planted shoots immersed once for 10 min, height determined 20 days after transplanting to the field”, `COC(=O)N(OC)c1ccccc1COc1ccn(-c2ccc(Cl)cc2)n1` [pyraclostrobin] had a Plant height of 38.3 cm. Also, under “treated once while in the greenhouse, 1 g pyraclostrobin per l, compared with untreated seedlings”, the “colour and vigour of the seedlings / young plants” value is “more intense, greener color and were more vigorous”. In addition, the “increase in plant height” value (versus untreated control, 1 g pyraclostrobin per l, 20 days after transplanting) is given as “more than 30%”.
